Results taken from patent US6949544B2, “Inhibitors of c-Jun N-terminal kinases (JNK) and other protein kinases” (Vertex Pharmaceuticals Incorporated, priority 2001, dated 2005).

What was measured:
Type in all cases: biochemical
CDK-2/Cyclin A = CDK-2/Cyclin A (Homo sapiens, UniProt P24941); assay: CDK2 inhibition assay (standard coupled enzyme assay); conditions: 25 nM CDK-2/Cyclin A; read-out: CDK2 Inhibitory Activity (Ki rating A-C)
Experimental: Compounds were screened in the following manner for their ability to inhibit CDK2 using a standard coupled enzyme assay (Fox et al (1998) Protein Sci 7, 2249).
To an assay stock buffer solution containing 0.1M HEPES 7.5, 10 mM MgCl2, 1 mM DTT, 25 mM NaCl, 2.5 mM phosphoenolpyruvate, […], […], […], […], and 100 μM peptide ([…], American Peptide, Sunnyvale, Calif.) was added a DMSO solution of a compound of the present invention to a final concentration of 30 μM. The resulting mixture was incubated at 30° C. for 10 minutes.
The reaction was initiated by the addition of 10 μL of CDK-2/Cyclin A stock solution to give a final concentration of 25 nM in the assay. The rates of reaction were obtained by monitoring absorbance at 340 nm over a 5-minute read time at 30° C. using a BioRad Ultramark plate reader (Hercules, Calif.). The Ki values were determined from the rate data as a function of inhibitor concentration.

[1] = molecular target: T1, Lck kinase purified from bovine thymus (Bos taurus, UniProt Q3ZCM0); assay: Lck inhibition assay (33P incorporation into poly Glu-Tyr); conditions: for Ki: 10 μM ATP, read-out: Activity in the Lck Inhibition Assay (Ki rating A-C)
T1 construct: Lck kinase purified from bovine thymus; purchased Upstate Biotechnology 14-106; host or cells: bovine thymus (tissue-purified)
Experimental: The compounds were assayed as inhibitors of Lck kinase purified from bovine thymus (from Upstate Biotechnology, cat. no. 14-106). Lck kinase activity was monitored by following the incorporation of ^33P from ATP into the tyrosine of a random poly Glu-Tyr polymer substrate of composition, Glu:Tyr=4:1 (Sigma, cat. no. P-0275). The following were the final concentrations of the assay components: 0.05 M HEPES, pH 7.6, 10 mM MgCl2, 2 mM DTT, 0.25 mg/ml BSA, 10 μM ATP (1-2 μCi ^33P-ATP per reaction), 5 mg/ml poly Glu-Tyr, and 1-2 units of lck kinase. In a typical assay, all the reaction components with the exception of ATP were pre-mixed and aliquoted into assay plate wells. […] The assay plate was incubated at 30° C. for 10 min before initiating the reaction with ^33P-ATP. After 20 min of reaction, the reactions were quenched with 150 μl of 10% trichloroacetic acid (TCA) containing 20 mM Na3PO4. The quenched samples were then transferred to a 96-well filter plate (Whatman, UNI-Filter GF/F Glass Fiber Filter, cat no. 7700-3310) installed on a filter plate vacuum manifold. Filter plates were washed four times with 10% TCA containing 20 mM Na3PO4 and then 4 times with methanol. 200 μl of scintillation fluid was then added to each well. The plates were sealed and the amount of radioactivity associated with the filters was quantified on a TopCount scintillation counter.

[2] = molecular target: Glycogen Synthase Kinase 3 (GSK-3) (Homo sapiens, UniProt P49841); assay: GSK-3 inhibition assay (standard coupled enzyme assay); conditions: 60 nM GSK-3, 10 μM ATP; read-out: GSK-3 Inhibitory Activity (Ki rating A-C)
Experimental: Compounds were screened in the following manner for their ability to inhibit Glycogen Synthase Kinase 3 (GSK-3) using a standard coupled enzyme assay (Fox et al (1998) Protein Sci 7, 2249). To an assay stock buffer solution containing 0.1M HEPES 7.5, 10 mM MgCl2, 25 mM NaCl, 2.5 mM phosphoenolpyruvate, 300 μM NADH, 1 mM DTT, 30 μg/mL pyruvate kinase, 10 μg/mL lactate dehydrogenase, 300 μM peptide (HSSPHQp-SEDEEE, American Peptide, Sunnyvale, Calif.), and 60 nM GSK-3, was added a 30 μM solution of the compound in DMSO and the resulting mixture incubated at 30° C. for 5 min. The reaction was initiated by the addition of 10 μM ATP. The rates of reaction were obtained by monitoring absorbance at 340 nm over a 5 minute read time at 30° C. using a Molecular Devices plate reader (Sunnyvale, Calif.). The IC50 was determined from the rate data as a function of inhibitor concentration.

activated JNK3 = molecular target: T2, activated JNK3 (Homo sapiens, UniProt P53779); assay: JNK inhibition assay (spectrophotometric coupled-enzyme assay); conditions: 10 nM activated JNK3, 10 μM ATP; read-out: Activity in the JNK3 Inhibition Assay (Ki rating A-C)
T2 construct: One such construct encodes amino acid residues Ser40-Glu402 of JNK3α1 and is preceded by Met and Gly residues; Met-Gly (initiator methionine and added glycine) (N); made in house; host or cells: E. coli BL21 (DE3)
Excerpt: A BLAST search of the EST database using the published JNK3α1 cDNA as a query identified an EST clone (#632588) that contained the entire coding sequence for human JNK3α1. Polymerase chain reactions (PCR) using pfu polymerase (Strategene) were used to introduce restriction sites into the cDNA for cloning into the pET-15B expression vector at the NcoI and BamHI sites. The protein was expressed in E. coli. […] This truncation corresponds to Ser 2 of JNK1 and JNK2 proteins, and is preceded by a methionine (initiation) and a glycine residue. The glycine residue was added in order to introduce an NcoI site for cloning into the expression vector. In addition, systematic C-terminal truncations were performed by PCR to identify a construct that give rise to diffraction-quality crystals.
5 mg of JNK3 was diluted to 0.5 mg/ml in 50 mM HEPES buffer, pH 7.5, containing 100 mM NaCl, 5 mM DTT, 20 mM MgCl2 and 1 mM ATP. GST-MKK7(DD) was added at a molar ratio of 1:2.5 GST-MKK7:JNK3. After incubation for 30 minutes at 25° C., the reaction mixture was concentrated 5-fold by ultrafiltration in a Centriprep-30 (Amicon, Beverly, Mass.), diluted to 10 ml and an additional 1 mM ATP added. This procedure was repeated three times to remove ADP and replenish ATP. The final addition of ATP was 5 mM and the mixture incubated overnight at 4° C.
The activated JNK3/GST-MKK7(DD) reaction mixture was exchanged into 50 mM HEPES buffer, pH 7.5, containing 5 mM DTT and 5% glycerol (w/v) by dialysis or ultrafiltration. The reaction mixture was adjusted to 1.1 M potassium phosphate, pH 7.5, and purified by hydrophobic interaction chromatography (at 25° C.) using a Rainin Hydropore column. […] Activated JNK3 (i.e. doubly phosphorylated JNK3) was stored at −70° C. at 0.25-1 mg/ml.
Compounds were assayed for the inhibition of JNK3 by a spectrophotometric coupled-enzyme assay. In this assay, a fixed concentration of activated JNK3 (10 nM) was incubated with various concentrations of a potential inhibitor dissolved in DMSO for 10 minutes at 30° C. in a buffer containing 0.1 M HEPES buffer, pH 7.5, containing 10 mM MgCl2, 2.5 mM phosphoenolpyruvate, 200 μM NADH, 150 μg/mL pyruvate kinase, 50 μg/mL lactate dehydrogenase, and 200 μM EGF receptor peptide. […] The reaction was initiated by the addition of 10 μM ATP and the assay plate is inserted into the spectrophotometer's assay plate compartment that was maintained at 30° C. The decrease of absorbance at 340 nm was monitored as a function of time. The rate data as a function of inhibitor concentration was fitted to competitive inhibition kinetic model to determine the Ki.

T2 sequence (P53779 40-402): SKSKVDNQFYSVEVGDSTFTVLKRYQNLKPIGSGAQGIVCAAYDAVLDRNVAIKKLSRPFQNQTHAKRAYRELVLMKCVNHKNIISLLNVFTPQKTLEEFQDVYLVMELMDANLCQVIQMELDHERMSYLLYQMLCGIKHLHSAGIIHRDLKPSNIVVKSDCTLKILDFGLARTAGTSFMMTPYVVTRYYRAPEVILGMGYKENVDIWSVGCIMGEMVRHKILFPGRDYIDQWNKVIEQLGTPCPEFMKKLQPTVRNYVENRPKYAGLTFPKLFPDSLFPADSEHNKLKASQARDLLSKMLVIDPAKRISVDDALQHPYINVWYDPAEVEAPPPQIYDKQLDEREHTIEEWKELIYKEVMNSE
T1 sequence (Q3ZCM0 1-509): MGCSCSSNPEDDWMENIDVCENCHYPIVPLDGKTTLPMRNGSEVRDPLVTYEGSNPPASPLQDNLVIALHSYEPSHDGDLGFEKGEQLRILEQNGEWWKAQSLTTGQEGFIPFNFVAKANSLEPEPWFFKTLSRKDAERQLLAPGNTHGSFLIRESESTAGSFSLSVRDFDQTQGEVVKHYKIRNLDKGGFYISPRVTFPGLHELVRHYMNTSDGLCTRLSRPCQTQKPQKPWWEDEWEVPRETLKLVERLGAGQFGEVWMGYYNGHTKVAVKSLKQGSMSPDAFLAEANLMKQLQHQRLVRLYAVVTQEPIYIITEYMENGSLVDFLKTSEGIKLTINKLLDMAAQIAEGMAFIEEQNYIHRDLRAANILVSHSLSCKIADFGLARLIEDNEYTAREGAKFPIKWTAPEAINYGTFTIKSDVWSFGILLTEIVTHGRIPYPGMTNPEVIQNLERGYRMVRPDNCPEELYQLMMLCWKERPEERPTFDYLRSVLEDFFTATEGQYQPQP
Sequence of Glycogen Synthase Kinase 3 (GSK-3) (P49841 whole entry): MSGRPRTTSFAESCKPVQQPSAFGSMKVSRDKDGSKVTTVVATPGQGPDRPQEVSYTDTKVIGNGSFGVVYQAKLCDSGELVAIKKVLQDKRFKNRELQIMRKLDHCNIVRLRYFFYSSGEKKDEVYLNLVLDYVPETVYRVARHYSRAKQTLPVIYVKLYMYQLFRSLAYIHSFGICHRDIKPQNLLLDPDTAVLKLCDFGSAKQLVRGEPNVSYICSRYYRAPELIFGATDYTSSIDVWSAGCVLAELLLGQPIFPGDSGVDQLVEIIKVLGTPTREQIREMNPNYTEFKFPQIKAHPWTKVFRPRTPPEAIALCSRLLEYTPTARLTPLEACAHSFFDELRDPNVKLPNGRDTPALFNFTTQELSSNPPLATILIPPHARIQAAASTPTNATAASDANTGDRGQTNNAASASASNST

COc1ccc(-c2ccnc(Nc3cc(-c4cccc(Cl)c4)ccc3C)n2)c(OC)c1OC [II-54] gave a Ki (CDK-2/Cyclin A) greater than 5000 nM and a Ki [1] of 100 to 1000 nM.
COc1ccc(-c2ccnc(Nc3cccc(-c4cccc(N)c4)c3)n2)c(OC)c1OC [II-51] showed a Ki (CDK-2/Cyclin A) greater than 5000 nM and a Ki [1] of 100 to 1000 nM.
COc1ccc(-c2ccnc(Nc3cccc(-c4ccc(N(C)C)cc4)c3)n2)c(OC)c1OC [II-52] gave a Ki (CDK-2/Cyclin A) greater than 5000 nM and a Ki [1] of 100 to 1000 nM.
COc1cccc(Nc2nccc(-c3cc(C)c(OC)c(C)c3)n2)c1 [Compound I-52] was tested, and the Ki [2] was 100 to 1000 nM and the Ki (activated JNK3) was less than 100 nM.
COc1cc(-c2ccnc(Nc3cccc(S(N)(=O)=O)c3)n2)cc(OC)c1OC [Compound I-94] was tested, and the Ki (activated JNK3) was less than 100 nM and the Ki [1] was 100 to 1000 nM.
COc1ccc(-c2ccnc(Nc3cc(-c4cc(C)ccc4C)ccc3C)n2)c(OC)c1OC [II-58] was tested, and the Ki (CDK-2/Cyclin A) was greater than 5000 nM and the Ki [1] was greater than 1000 nM.
For COc1cc(-c2ccnc(Nc3nccs3)n2)cc(OC)c1OC [Compound I-85], the Ki (activated JNK3) was 100 to 1000 nM and the Ki [1] was 100 to 1000 nM.
For COc1ccc(-c2ccnc(Nc3cc(-c4ccc(N(C)C)cc4)ccc3C)n2)c(OC)c1OC [II-55], the Ki (CDK-2/Cyclin A) was greater than 5000 nM and the Ki [1] was less than 100 nM.
For COc1cc(-c2ccnc(Nc3ccc(F)cc3F)c2)cc(OC)c1OC [Compound I-159], the Ki [2] was 100 to 1000 nM.
For COc1ccc(-c2ccnc(Nc3cc(-c4cccc(C(F)(F)F)c4)ccc3C)n2)c(OC)c1OC [II-57], the Ki (CDK-2/Cyclin A) was greater than 5000 nM and the Ki [1] was greater than 1000 nM.
For COc1ccc(-c2ccnc(Nc3cccc(-c4cccc(Cl)c4)c3)n2)c(OC)c1OC [II-39], the Ki [1] was less than 100 nM.
Compound COc1ccc(-c2ccnc(Nc3cccc(Oc4ccncc4)c3)n2)c(OC)c1OC [II-23] has a Ki [1] of less than 100 nM.
Work on COc1ccc(-c2ccnc(Nc3cccc(OCc4ccccc4)c3)n2)c2c1OCCO2 [II-16] yielded a Ki [1] of 100 to 1000 nM.
With COc1cc(-c2ccnc(Nc3cccc(N(C)C)c3)n2)cc(OC)c1OC [Compound I-89] the Ki (activated JNK3) was 100 to 1000 nM and the Ki [1] was 100 to 1000 nM.
Work on COc1ccc(-c2ccnc(Nc3cccc(-c4ccccc4F)c3)n2)c(OC)c1OC [II-35] yielded a Ki [1] of less than 100 nM.
Work on COc1ccc(-c2ccnc(Nc3cccc(Oc4ccccc4)c3)n2)c(OCCN2CCOCC2)c1OC [II-21] yielded a Ki [1] greater than 1000 nM.
Work on COc1ccc(-c2ccnc(Nc3cccc(OCc4ccccc4)c3)n2)c(OC)c1OCCN1CCOCC1 [II-20] yielded a Ki [1] greater than 1000 nM.
For COc1cc(-c2ccnc(NCc3ccccc3)n2)cc(OC)c1OC [Compound I-37], the Ki [2] was greater than 1000 nM and the Ki (activated JNK3) was greater than 1000 nM.
For COc1ccc(-c2cccc(Nc3nccc(-c4ccc(OC)c(OC)c4OC)n3)c2)cc1 [II-43], the Ki [1] was less than 100 nM.
Compound COc1cc(-c2ccnc(Nc3ccc(F)c(F)c3)c2)cc(OC)c1OC [Compound I-160] has a Ki [2] greater than 1000 nM.
Work on COc1ccc(-c2ccnc(Nc3cccc(-c4ccc(Cl)cc4)c3)n2)c(OC)c1OC [II-40] yielded a Ki [1] of less than 100 nM.
For COc1ccc(-c2ccnc(Nc3cc(C)cc(C)c3)n2)c(OC)c1OC [II-14, (3,5-Dimethylphenyl)-[4-(2,3,4-trimethoxyphenyl)-pyrimid-2-yl]-amine], the “Activity in the Lck Inhibition Assay (percent inhibition rating D-F)” value ([1]; at a 5 μM inhibitor concentration) was “F (percent inhibition of between 67% and 100%)”.
COc1ccc(-c2ccnc(Nc3cccc(C)c3)n2)c(OC)c1OC [II-10] gave a Ki [1] greater than 1000 nM.
Work on COc1ccc(-c2ccnc(Nc3cccc(-c4ccc(CO)cc4)c3)n2)c(OC)c1OC [II-49] yielded a Ki (CDK-2/Cyclin A) greater than 5000 nM and a Ki [1] of less than 100 nM.
For COc1cc(Oc2ccccc2)nc(Nc2nccc(-c3ccc(OC)c(OC)c3OC)n2)n1 [II-34], the Ki [1] was greater than 1000 nM.
COc1ccc(-c2ccnc(Nc3cccc(-c4cccnc4)c3)n2)c(OC)c1OC [II-53] gave a Ki (CDK-2/Cyclin A) greater than 5000 nM and a Ki [1] of 100 to 1000 nM.
COc1ccc(Nc2nccc(-c3ccc(OC)c(OC)c3OC)n2)cc1 [II-12] showed a Ki [1] of 100 to 1000 nM.
For COc1cccc(-c2cccc(Nc3nccc(-c4ccc(OC)c(OC)c4OC)n3)c2)c1 [II-42], the Ki [1] was 100 to 1000 nM.
In the case of COc1ccc(-c2ccnc(Nc3cc(-c4cccnc4)ccc3C)n2)c(OC)c1OC [II-60], the Ki (CDK-2/Cyclin A) is reported as greater than 5000 nM and the Ki [1] is reported as 100 to 1000 nM.
COc1ccc(-c2ccnc(Nc3cccc(-c4ccc(F)c(Cl)c4)c3)n2)c(OC)c1OC [II-50] was tested, and the Ki (CDK-2/Cyclin A) was greater than 5000 nM and the Ki [1] was 100 to 1000 nM.
In the case of COc1ccc(-c2ccnc(Nc3cccc(OCc4ccccc4)c3)n2)c(OCCN2CCOCC2)c1OC [II-22], the Ki [1] is reported as greater than 1000 nM.
Compound COc1ccc(-c2ccnc(Nc3cccc(-c4ccccc4Cl)c3)n2)c(OC)c1OC [II-38] has a Ki [1] of 100 to 1000 nM.
For CCOc1cccc(-c2ccc(C)c(Nc3nccc(-c4ccc(OC)c(OC)c4OC)n3)c2)c1 [II-59], the Ki (CDK-2/Cyclin A) was greater than 5000 nM and the Ki [1] was 100 to 1000 nM.
In the case of COc1ccc(-c2ccnc(Nc3cccc(-c4ccc(F)cc4)c3)n2)c(OC)c1OC [II-37], the Ki [1] is reported as less than 100 nM.
COc1ccc(-c2ccnc(Nc3cccc(Cc4ccccc4)c3)n2)c(OC)c1OC [II-27] gave a Ki [1] of 100 to 1000 nM.
Compound COc1ccc(-c2ccnc(Nc3cc(CO)ccc3C)n2)c(OC)c1OC [II-61] has a Ki (CDK-2/Cyclin A) greater than 5000 nM and a Ki [1] of 100 to 1000 nM.
CCc1ccc(Nc2cc(-c3cc(OC)c(OC)c(OC)c3)ccn2)cc1 [Compound I-158] showed a Ki [2] greater than 1000 nM.
With COc1ccc(Oc2ccccc2)cc1Nc1nccc(-c2ccc(OC)c(OC)c2OC)n1 [II-31] the Ki [1] was less than 100 nM.
Compound COc1ccc(-c2ccnc(Nc3cccc(OCc4ccccc4)c3)n2)c(OC)c1OC [II-2] has a Ki [1] of 100 to 1000 nM.
